The text below walks through data of patent publication US20240180803A1, “HYALURONIC ACID-PRODUCTION PROMOTER” (NISSIN FOODS HOLDINGS CO., LTD., priority 2021, published 2024).

The assay concerns normal human dermal fibroblasts (NHDF). Put plainly: Production capacity evaluation test of hyaluronic acid in cultured cells. The assay is classed as cell-based. Particulars: for Amount of hyaluronic acid produced obtained by subtracting NC / Measured value (amount of hyaluronic acid in the culture supernatant): NHDF culture supernatant; for Measured value (amount of hyaluronic acid in the culture supernatant): NC 942; for production capacity of hyaluronic acid with the NC taken as 100%: NHDF, 24 hours, culture supernatant. Here is the method: Reagents were first prepared. […] Next, preparation of cultured cells was performed. In Example, the preparation was performed with normal human dermal fibroblasts (NHDF). First, using Dulbecco's Modified Eagle Medium (DMEM, manufactured by Gibco) to which 10% heat-inactivated FBS (manufactured by Biowest) and penicillin-streptomycin (manufactured by Invitrogen) were added, NHDF was cultured under the conditions of 37° C., 5% CO2. NHDF cells were then seeded to a 24-well plate at 1.0×10^5 cells/well. Thereafter, the NHDF cells were cultured for 72 hours under the conditions mentioned above. After the cell culture, the culture supernatant was replaced with DMEM containing no FBS. […] Note that in cultured cells, the concentration is not related to an absorption rate, which is applied to oral intake. […] After the addition of the reagent or reagents, the cells were cultured for 24 hours under the conditions of 37° C., 5% CO2. The medium was recovered after culturing, and the concentration of the hyaluronic acid in the culture supernatant was measured using Hyaluronan DuoSet Kit (manufactured by R&D Systems). Note that the cell culture without reagent was set as a negative control (NC) in Example. […] Here, the cell culture without reagent was set as a negative control (NC), and the amount (ng/mL) of hyaluronic acid produced was determined by subtracting the amount of hyaluronic acid produced of the NC from the amount of hyaluronic acid produced of each compound with reagent.

Regarding `O=C(O)/C=C/c1ccc(O)cc1` [trans-p-coumaric Acid, Trans-p-coumaric acid, reference compound], for the setting “final concentration 1 mM”, the “Amount of hyaluronic acid produced obtained by subtracting NC” value (“Amount … by subtracting NC” below) was found to be 275.4202 ng/mL and the “Measured value (amount of hyaluronic acid in the culture supernatant)” value (“Measured value” below) is 1217 ng/mL.

Consider `O=c1c(-c2ccc(O)cc2)coc2cc(O)ccc12` [Daidzein, daidzein, reference compound], for which, under “final concentration 1 mM”, the “Amount … by subtracting NC” value is given as 0 ng/mL and the “Measured value” value is recorded as 891 ng/mL.

`O=C(/C=C/c1ccc(O)cc1)c1ccc(O)cc1O` [Isoliquiritigenin, isoliquiritigenin]: the “production capacity of hyaluronic acid with the NC taken as 100%” value (“production capacity … as 100%” below) (0.01 μM final concentration) worked out at 142%. Further, the “production capacity … as 100%” value (0.05 μM final concentration) is 138%. Besides, the “production capacity … as 100%” value (1 μM final concentration) is 127%. In addition, under “any concentration tested (0.001 to 1 mM)”, the “promotion of hyaluronic acid production (in words)” value is “promotion of hyaluronic acid production was confirmed”. Where the note is “concentrations from 0.01 to 0.05 mM”, the “promotion capacity of hyaluronic acid production (in words)” value is “remarkably high promotion capacity of production”. For the same molecule, where the note is “final concentration 1 mM”, the “amount of hyaluronic acid produced compared with substances having similar chemical structures (in words)” value is listed as “the highest”, the “Amount … by subtracting NC” value is 562.7006 ng/mL and the “Measured value” value worked out at 1504 ng/mL.

Take `O=C1C[C@@H](c2ccc(O)cc2)Oc2cc(O)ccc21` [Liquiritigenin, liquiritigenin, reference compound]: under “final concentration 1 mM”, the “Amount … by subtracting NC” value is reported as 164.725 ng/mL and the “Measured value” value is 1106 ng/mL.

With `CCCCCCCCCCCCCCCCCCCC(=O)O` [Arachidic acid, arachidic acid], the “production capacity … as 100%” value by setting is: (0.001 μM final concentration) 111%; (0.01 μM final concentration) 122%; (0.05 μM final concentration) 102%; (0.1 μM final concentration) 107%; (1 μM final concentration) 127%. Besides, the “promotion capacity of hyaluronic acid production (in words)” value (concentrations of 0.01 mM or less and of 1 mM) is recorded as “high promotion capacity of production”.
